Assay results: ChEMBL document CHEMBL1201862, “PubChem BioAssay data set” (2004)
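These data come from cells grown in 96-well plates and exposed to compound for 48 hours at five concentrations. GI50 = concentration required for 50% inhibition of growth.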 Activity calls are given as the source filed them. Cut-off read from the data, not from the text of the source: active = GI50 up to about 1.1 µM and inactive = higher.

Legend:
Test in all cases: DTP human tumour cell line panel, 48 h
NCI-H522 = tested on: NCI-H522
SF-539 = tested on: SF-539
PC-3 = tested on: PC-3
DU-145 = tested on: DU-145
SK-MEL-2 = tested on: SK-MEL-2
MOLT-4 = tested on: MOLT-4
NCI/ADR-RES = tested on: NCI/ADR-RES
T47D = tested on: T47D
SN12C = tested on: SN12C
A498 = tested on: A498
MDA-MB-231 = tested on: MDA-MB-231
SK-OV-3 = tested on: SK-OV-3
UACC-62 = tested on: UACC-62
A549 = tested on: A549
Hs-578T = tested on: Hs-578T
HOP-62 = tested on: HOP-62
RPMI-8226 = tested on: RPMI-8226
SK-MEL-5 = tested on: SK-MEL-5
EKVX = tested on: EKVX
HOP-92 = tested on: HOP-92

Measured: GI50

COc1ccc(C2CC(c3ccccc3)=Nc3c(-c4ccccc4)nnn32)cc1 (stereo unspecified)
inactive: NCI-H522 8.22 µM | SF-539 85.3 µM | PC-3 72.6 µM | DU-145 > 100 µM | SK-MEL-2 44.4 µM | MOLT-4 > 100 µM | NCI/ADR-RES > 100 µM | T47D 10 µM | SN12C > 100 µM | A498 > 100 µM | MDA-MB-231 85.1 µM | SK-OV-3 > 100 µM | UACC-62 55.7 µM | A549 39.2 µM | Hs-578T 51.2 µM | HOP-62 96.2 µM | RPMI-8226 12.8 µM | SK-MEL-5 9.27 µM

COC(=O)c1cc(NC(=O)Cn2c3ccccc3c3ccccc32)cn1C
inactive: NCI-H522 28.3 µM | SF-539 23.9 µM | PC-3 31 µM | DU-145 > 100 µM | SK-MEL-2 47.9 µM | MOLT-4 61 µM | EKVX 34 µM | NCI/ADR-RES 30.3 µM | T47D > 100 µM | SN12C 55.3 µM | A498 > 100 µM | MDA-MB-231 20.1 µM | SK-OV-3 25.6 µM | UACC-62 17.1 µM | A549 26.7 µM | Hs-578T 14.2 µM | HOP-62 25.6 µM | RPMI-8226 19.5 µM | SK-MEL-5 65.8 µM

O=C(NC(C(F)(F)F)(C(F)(F)F)P(=O)(c1ccccc1)c1ccccc1)C(C(F)(F)F)C(F)(F)F
inactive: NCI-H522 25.9 µM | SF-539 22.8 µM | PC-3 27.8 µM | DU-145 > 100 µM | SK-MEL-2 40.6 µM | MOLT-4 26.7 µM | EKVX > 100 µM | NCI/ADR-RES 21.6 µM | T47D > 100 µM | SN12C 27.9 µM | A498 > 100 µM | MDA-MB-231 24.2 µM | SK-OV-3 > 100 µM | UACC-62 56 µM | A549 34.6 µM | Hs-578T 54 µM | HOP-62 > 100 µM | RPMI-8226 33.6 µM | SK-MEL-5 17.8 µM

CCOc1ccccc1/N=C\c1c2ccccc2cc2ccccc12
inactive: SF-539 23.8 µM | PC-3 23.3 µM | DU-145 22.1 µM | HOP-92 21 µM | SK-MEL-2 22.1 µM | MOLT-4 11.6 µM | EKVX 18.1 µM | NCI/ADR-RES 23.1 µM | T47D 18.9 µM | SN12C 22.4 µM | A498 27 µM | MDA-MB-231 27.2 µM | SK-OV-3 22.3 µM | UACC-62 38.5 µM | A549 26.4 µM | Hs-578T 15.3 µM | HOP-62 26.1 µM | RPMI-8226 15.5 µM | SK-MEL-5 25.6 µM

C=C1C(=O)O[C@H]2C/C(C)=C/CC[C@]3(C)CCC[C@](C)(CC[C@@H]12)O3
inactive: NCI-H522 6.35 µM | SF-539 9.48 µM | PC-3 12.6 µM | DU-145 15.2 µM | HOP-92 6.46 µM | SK-MEL-2 8.51 µM | MOLT-4 6.71 µM | EKVX 9.04 µM | NCI/ADR-RES 7.91 µM | T47D 9.71 µM | SN12C 12.7 µM | MDA-MB-231 13.3 µM | SK-OV-3 22.2 µM | UACC-62 8.69 µM | A549 16.6 µM | Hs-578T 8.69 µM | HOP-62 20.5 µM | RPMI-8226 5.93 µM | SK-MEL-5 6.44 µM

CCOC(=O)N1CCNCCN(C(=O)OCC)CCNCC1
inactive: NCI-H522 > 100 µM | SF-539 > 100 µM | PC-3 > 100 µM | DU-145 > 100 µM | HOP-92 > 100 µM | SK-MEL-2 > 100 µM | MOLT-4 > 100 µM | EKVX > 100 µM | NCI/ADR-RES > 100 µM | T47D > 100 µM | SN12C > 100 µM | A498 > 100 µM | MDA-MB-231 > 100 µM | UACC-62 > 100 µM | A549 > 100 µM | Hs-578T > 100 µM | HOP-62 > 100 µM | RPMI-8226 > 100 µM | SK-MEL-5 > 100 µM

Cc1nn(-c2ccccc2)c2c1N=C(C(=O)O)CC(c1ccccc1)=N2
inactive: NCI-H522 > 10 µM | SF-539 > 10 µM | PC-3 > 10 µM | DU-145 > 10 µM | HOP-92 > 10 µM | MOLT-4 > 10 µM | NCI/ADR-RES > 10 µM | T47D > 10 µM | SN12C > 10 µM | MDA-MB-231 > 10 µM | SK-OV-3 > 10 µM | UACC-62 > 10 µM | A549 > 10 µM | Hs-578T > 10 µM | HOP-62 > 10 µM | RPMI-8226 > 10 µM | SK-MEL-5 > 10 µM

COC(=O)C1(Cc2ccc3c(c2)CCC3)Cc2ccc3c(c2C1O)CCC3 (stereo unspecified)
inactive: NCI-H522 10.9 µM | SF-539 21.2 µM | PC-3 15.1 µM | DU-145 11.8 µM | HOP-92 10.1 µM | MOLT-4 > 100 µM | EKVX 8.89 µM | NCI/ADR-RES 12.6 µM | T47D 8.81 µM | SN12C 15 µM | A498 11.7 µM | MDA-MB-231 12.7 µM | SK-OV-3 18.5 µM | UACC-62 15.5 µM | A549 14.1 µM | Hs-578T 17.3 µM | HOP-62 14.7 µM | RPMI-8226 17 µM | SK-MEL-5 10.2 µM

CC(=O)OCC1OC(Oc2cc(C)c(O)cc2C/C=C(\C)CC/C=C(\C)C[C@@H](C=C(C)C)OC(C)=O)C(O)C(OC(C)=O)C1OC(C)=O (stereo partly specified)
inactive: NCI-H522 17.1 µM | PC-3 18.2 µM | DU-145 28.6 µM | HOP-92 > 50 µM | SK-MEL-2 19.9 µM | MOLT-4 8.26 µM | EKVX 38.6 µM | NCI/ADR-RES 16.8 µM | T47D 10.1 µM | SN12C 20.2 µM | A498 15.2 µM | MDA-MB-231 37.3 µM | SK-OV-3 > 50 µM | UACC-62 13.1 µM | A549 19.1 µM | Hs-578T 13.6 µM | HOP-62 28.4 µM | RPMI-8226 9.84 µM | SK-MEL-5 9.14 µM

CC1=NN(c2ccc(S(=O)(=O)O)cc2)C2(C1)C(Cl)C(=O)N2c1nc2ccccc2s1 (stereo unspecified)
inactive: NCI-H522 > 100 µM | PC-3 > 100 µM | DU-145 > 100 µM | HOP-92 > 100 µM | SK-MEL-2 92.5 µM | MOLT-4 > 100 µM | EKVX 55.7 µM | NCI/ADR-RES > 100 µM | T47D 59.8 µM | SN12C > 100 µM | A498 > 100 µM | MDA-MB-231 > 100 µM | SK-OV-3 > 100 µM | UACC-62 95.9 µM | A549 > 100 µM | Hs-578T > 100 µM | HOP-62 91.2 µM | RPMI-8226 > 100 µM | SK-MEL-5 > 100 µM

OC1CCCN(C2(c3cccs3)CCCCC2)C1 (stereo unspecified)
inactive: NCI-H522 > 100 µM | PC-3 > 100 µM | DU-145 > 100 µM | HOP-92 > 100 µM | SK-MEL-2 > 100 µM | MOLT-4 > 100 µM | EKVX > 100 µM | NCI/ADR-RES > 100 µM | T47D > 100 µM | SN12C > 100 µM | A498 > 100 µM | MDA-MB-231 > 100 µM | SK-OV-3 > 100 µM | UACC-62 > 100 µM | Hs-578T > 100 µM | HOP-62 > 100 µM | RPMI-8226 > 100 µM | SK-MEL-5 > 100 µM

C/C(=N\NC(=O)c1ccc(Cl)cc1)c1nc2cccnc2[nH]1
inactive: NCI-H522 18.7 µM | SF-539 18.2 µM | PC-3 > 100 µM | DU-145 49 µM | SK-MEL-2 28.4 µM | MOLT-4 14.3 µM | EKVX 43 µM | NCI/ADR-RES 20.5 µM | T47D 22.8 µM | SN12C 27.6 µM | A498 43.8 µM | MDA-MB-231 36.8 µM | SK-OV-3 20.4 µM | UACC-62 20.7 µM | A549 30.2 µM | Hs-578T 27.3 µM | HOP-62 32.7 µM | RPMI-8226 27 µM | SK-MEL-5 15.8 µM

CC(C)=CCC[C@@H](C)C1=C(O)C(=O)C(C)=C(Nc2ccccc2)C1=O
inactive: SF-539 26 µM | PC-3 23.9 µM | DU-145 24.2 µM | HOP-92 23.5 µM | SK-MEL-2 20.2 µM | MOLT-4 6.82 µM | EKVX 24.2 µM | NCI/ADR-RES 4.03 µM | T47D 19.9 µM | SN12C 23.9 µM | A498 20 µM | MDA-MB-231 22.5 µM | SK-OV-3 27.6 µM | UACC-62 13 µM | A549 16.9 µM | Hs-578T 31.8 µM | HOP-62 11.3 µM | RPMI-8226 43.2 µM | SK-MEL-5 17.6 µM

Clc1cc2nnn(C3CCCCO3)c2cc1Cl (stereo unspecified)
inactive: NCI-H522 42.5 µM | SF-539 > 100 µM | PC-3 58.1 µM | DU-145 99.1 µM | SK-MEL-2 > 100 µM | MOLT-4 75.7 µM | EKVX 20.7 µM | NCI/ADR-RES 48.3 µM | T47D 30.4 µM | SN12C > 100 µM | A498 36.1 µM | MDA-MB-231 24.5 µM | SK-OV-3 > 100 µM | UACC-62 37.2 µM | A549 80.2 µM | Hs-578T 35.4 µM | HOP-62 > 100 µM | RPMI-8226 > 100 µM | SK-MEL-5 38.7 µM

COc1cc([N+](=O)[O-])c(S(=O)(=O)O)cc1NS(=O)(=O)c1ccc(C)cc1
inactive: NCI-H522 > 100 µM | SF-539 > 100 µM | PC-3 > 100 µM | DU-145 > 100 µM | SK-MEL-2 > 100 µM | MOLT-4 > 100 µM | EKVX > 100 µM | NCI/ADR-RES > 100 µM | T47D > 100 µM | SN12C > 100 µM | A498 > 100 µM | MDA-MB-231 > 100 µM | SK-OV-3 > 100 µM | UACC-62 > 100 µM | A549 > 100 µM | Hs-578T > 100 µM | HOP-62 > 100 µM | RPMI-8226 > 100 µM | SK-MEL-5 > 100 µM
